Source: patent US5187187A, “Irreversible ligands for nonsteroidal antiinflammatory drug and prostaglandin binding sites” (Trustees of the University of Pennsylvania, priority 1991, dated 1993)

Experiments:
3α-HSD [1] = biological target: T1, 3α-HSD (Rattus norvegicus, UniProt P23457); assay: Competitive inhibition of androsterone oxidation catalyzed by 3α-HSD, initial velocity conditions, method of Dixon; assay type: biochemical; settings: inhibition constants under initial velocity conditions, NADH formation at 340 nm, pH 7.0
T1 construct: The homogeneous 3α-HSD of rat liver cytosol; from tissue; host or cells: rat liver cytosol
T1 sequence (P23457 1-322): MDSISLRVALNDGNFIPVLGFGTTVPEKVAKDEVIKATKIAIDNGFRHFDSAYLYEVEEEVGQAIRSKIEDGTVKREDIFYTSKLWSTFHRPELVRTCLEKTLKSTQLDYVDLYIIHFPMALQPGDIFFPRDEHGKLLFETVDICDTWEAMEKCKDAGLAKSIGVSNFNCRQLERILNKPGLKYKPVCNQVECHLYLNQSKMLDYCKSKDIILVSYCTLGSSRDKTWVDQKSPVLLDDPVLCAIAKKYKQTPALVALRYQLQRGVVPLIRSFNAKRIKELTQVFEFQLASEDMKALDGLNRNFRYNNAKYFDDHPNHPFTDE
Protocol: Initial rates were determined spectrophotometrically by measuring the rate of NADH formation at 340 nM over 5 minutes in an assay containing 2.3 mM AND^+ in 0.1 M potassium phosphate buffer pH 7.0, with 4% acetonitrile (v/v) as a cosolvent in a 1 ml system. The assay was started by the addition of enzyme. […] From the slope of this plot, the Ki was determined.

3α-HSD [2] = biological target: T1, 3α-HSD; assay: Time and concentration dependent inactivation of 3α-HSD, method of Kitz and Wilson; assay type: biochemical; settings: for t1/2 life for the enzyme at saturating inactivator concentrations: Kitz and Wilson analysis; for Return of activity of inactivated enzyme by extensive dialysis: after inactivation; for Loss of 3α-HSD activity (inactivation): incubation of enzyme with inactivator; for KI (inactivation): independent determination from time dependent inactivation, 1/kapp vs 1/[Inhibitor], pH 7.0, read-out: Ki (Kitz and Wilson analysis of inactivation)
Protocol: The difference in the Ki 's determined from the two methods can probably be attributed to the difference in the binding order in the enzymatic mechanism.
Inactivation of […] (15 μM) was conducted in incubations (50 μl) of 10 mM potassium phosphate buffer pH 7.0 containing 1 mM EDTA and 4% acetonitrile as a cosolvent. Enzyme activity was followed over time by diluting an aliquot of the incubation mixture in a 1 ml assay containing 2.3 mM […] and 75 μM androsterone in 0.1 M potassium phosphate buffer, pH 7.0 containing 1 mM mercaptoethanol, with 4% acetonitrile as a cosolvent. Initial rates were determined as described in FIG. 1. Because of the 100 fold or greater dilution of the enzyme into the assay, the initial rate measured is an indication of the enzyme activity remaining at that time. Initial rates of inactivation (kapp 's) were determined from semilogarithmic plots of percent enzyme activity remaining versus time. Data was replotted (FIG. 2b) as 1 /kapp vs 1/[Inhibitor] from which kinact (the rate constant for enzyme inactivation) and Ki (the binding constant for compound (VII)) were determined.

[3] = in vivo; cited from earlier work

Structure (SMILES) | Ki (3α-HSD [1]) | t1/2 life for the enzyme at saturating inactivator concentrations (3α-HSD [2]) | Return of activity of inactivated enzyme by extensive dialysis (3α-HSD [2]) | KI (inactivation) (3α-HSD [2]) | Loss of 3α-HSD activity (inactivation) (3α-HSD [2]) | plasma t1/2 life [3]
COc1ccc2c(c1)c(CC(=O)O)c(C)n2Cc1ccc(NC(=O)CBr)cc1 [Compound (VI), 1-(4-bromoacetamidobenzyl)-5-methoxy-2-methylindole-3-aceticacid] | 15 µM | 40.2 s | cannot be returned by extensive dialysis | 233 µM | time and concentration dependent loss of 3α-HSD activity | 
O=C(CBr)Nc1ccc(Nc2ccccc2C(=O)O)cc1 [Compound (VII), N-(4-bromoacetamidophenyl) anthranilic acid] | 2.5 µM | 12.1 s | cannot be returned by extensive dialysis | 161 µM | time and concentration dependent loss of 3α-HSD activity | 
CC(=O)Oc1ccccc1C(=O)O [aspirin, acetyl salicylate] |  |  |  |  |  | 900 s
Cc1ccc(C(=O)c2ccc(CC(=O)O)n2C)cc1 [Tolmetin (IV), tolmetin, reference compound] | 29 µM |  |  |  |  | 

More lines, in order of falling Ki (3α-HSD [1]), values ahead:

Ki (3α-HSD [1]) | t1/2 life for the enzyme at saturating inactivator concentrations (3α-HSD [2]) | Return of activity of inactivated enzyme by extensive dialysis (3α-HSD [2]) | KI (inactivation) (3α-HSD [2]) | Structure (SMILES) | Loss of 3α-HSD activity (inactivation) (3α-HSD [2]) | plasma t1/2 life [3]
1.5 µM | 7.1 s | cannot be returned by extensive dialysis | 155 µM | O=C(CBr)Nc1cccc(Nc2ccccc2C(=O)O)c1 [Compound (VIII), N-(3-bromoacetamidophenyl) anthranilic acid] | time and concentration dependent loss of 3α-HSD activity | 
1.1 µM |  |  |  | Cc1ccc(Cl)c(Nc2ccccc2C(=O)O)c1Cl [Meclofenamate (II), meclofenamic acid, reference compound] |  | 
0.835 µM |  |  |  | COc1ccc2c(c1)c(CC(=O)O)c(C)n2C(=O)c1ccc(Cl)cc1 [Indomethacin (I), indomethacin, reference compound] |  | 
